# Experimental data published in the supplement of paper PMC8617591.
# Columns and labels:
# [1] = tested on: Mycobacterium tuberculosis Erdman (autoluminescent); assay: GRinf, maximum normalised growth rate inhibition (three-drug combination) (unitless (-1 to 1)); higher = less effect (negative = killing)
# Protocol: (§1)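 DiaMOND equipotent three-drug combination dose responses (10 doses, 1.5- or 2-fold spacing, centred on IC90) against autoluminescent M. tuberculosis Erdman in 8 in vitro models. Read-out is OD600, or luminescence for the intracellular and dormancy models, normalised to untreated wells. Hill-fit Einf, AUC25 and GRinf are potency metrics; FIC50 and FIC90 are total Loewe fractional inhibitory concentrations as log2 (negative = synergy).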
# [2] = tested on: Mycobacterium tuberculosis Erdman (autoluminescent); assay: total FIC50 (Loewe) at 50% inhibition, three-drug combination (log2); higher = more antagonistic
# Protocol: as §1
# [3] = tested on: Mycobacterium tuberculosis Erdman (autoluminescent); assay: total FIC90 (Loewe) at 90% inhibition, three-drug combination (log2); higher = more antagonistic
# Protocol: as §1
# [4] = tested on: Mycobacterium tuberculosis Erdman (autoluminescent); assay: Einf, fitted maximum growth inhibition of three-drug combination (fraction); higher = stronger maximal inhibition
# Protocol: as §1
# [5] = tested on: Mycobacterium tuberculosis Erdman (autoluminescent); assay: AUC25, normalised area under dose response up to IC25 (three-drug combination) (fraction (0-1)); higher = more potent at low dose
# Protocol: as §1
# [6] = in vitro model: acidic pH 5.7, time point: constant (~7 days, model-specific)
# [7] = in vitro model: acidic pH 5.7, time point: terminal (~4-5 doublings, model-specific)
# [8] = in vitro model: butyrate, time point: constant (~7 days, model-specific)
# [9] = in vitro model: butyrate, time point: terminal (~4-5 doublings, model-specific)
# [10] = in vitro model: cholesterol 0.05 mM, time point: constant (~7 days, model-specific)
# [11] = in vitro model: cholesterol 0.05 mM, time point: terminal (~4-5 doublings, model-specific)
# [12] = in vitro model: cholesterol-high 0.2 mM, time point: constant (~7 days, model-specific)
# [13] = in vitro model: cholesterol-high 0.2 mM, time point: terminal (~4-5 doublings, model-specific)
# [14] = in vitro model: dormancy (butyrate + nitrate, low O2), time point: constant (~7 days, model-specific)
# [15] = in vitro model: dormancy (butyrate + nitrate, low O2), time point: terminal (~4-5 doublings, model-specific)
# [16] = in vitro model: intracellular J774, time point: constant = terminal
# [17] = in vitro model: standard 7H9 glycerol, time point: constant = terminal
# [18] = in vitro model: valerate, time point: constant (~7 days, model-specific)
# [19] = in vitro model: valerate, time point: terminal (~4-5 doublings, model-specific)
compound,measurement,setting,value
COc1nc2ccc(Br)cc2cc1[C@@H](c1ccccc1)[C@@](O)(CCN(C)C)c1cccc2ccccc12 [bedaquiline] + CC(=O)NC[C@H]1CN(c2ccc(N3CCOCC3)c(F)c2)C(=O)O1 [linezolid] + O=[N+]([O-])c1cn2c(n1)OC[C@@H](OCc1ccc(OC(F)(F)F)cc1)C2 [pretomanid],GRinf,[1]; [6],-0.508
same,GRinf,[1]; [7],-0.56
same,GRinf,[1]; [8],-0.119
same,GRinf,[1]; [9],-0.0976
same,GRinf,[1]; [10],-0.284
same,GRinf,[1]; [11],-0.303
same,GRinf,[1]; [12],-0.376
same,GRinf,[1]; [13],-0.834
same,GRinf,[1]; [14],0.23
same,GRinf,[1]; [15],-0.115
same,GRinf,[1]; [16],-0.78
same,GRinf,[1]; [17],-0.108
same,GRinf,[1]; [18],-0.172
same,GRinf,[1]; [19],-0.132
same,total FIC50,[2]; [6],0.414
same,total FIC50,[2]; [7],0.58
same,total FIC50,[2]; [8],0.731
same,total FIC50,[2]; [9],0.645
same,total FIC50,[2]; [10],0.169
same,total FIC50,[2]; [11],0.274
same,total FIC50,[2]; [12],0.197
same,total FIC50,[2]; [13],-0.088
same,total FIC50,[2]; [14],-0.22
same,total FIC50,[2]; [15],-0.261
same,total FIC50,[2]; [17],0.296
same,total FIC50,[2]; [18],0.447
same,total FIC50,[2]; [19],0.00392
same,total FIC90,[3]; [7],0.474
same,total FIC90,[3]; [8],1.49
same,total FIC90,[3]; [9],0.887
same,total FIC90,[3]; [11],0.577
same,total FIC90,[3]; [13],0.591
same,total FIC90,[3]; [14],-0.616
same,total FIC90,[3]; [15],-1.1
same,total FIC90,[3]; [16],1.25
same,total FIC90,[3]; [17],0.191
same,total FIC90,[3]; [18],1.63
same,total FIC90,[3]; [19],1.32
same,Einf,[4]; [6],0.937
same,Einf,[4]; [7],0.992
same,Einf,[4]; [8],0.943
same,Einf,[4]; [9],0.97
same,Einf,[4]; [10],0.738
same,Einf,[4]; [11],0.962
same,Einf,[4]; [12],0.948
same,Einf,[4]; [13],1
same,Einf,[4]; [14],0.92
same,Einf,[4]; [15],0.988
same,Einf,[4]; [16],0.99
same,Einf,[4]; [17],0.955
same,Einf,[4]; [18],0.929
same,Einf,[4]; [19],0.958
same,AUC25,[5]; [6],0.118
same,AUC25,[5]; [7],0.0812
same,AUC25,[5]; [8],0.105
same,AUC25,[5]; [9],0.0754
same,AUC25,[5]; [10],0.136
same,AUC25,[5]; [11],0.141
same,AUC25,[5]; [12],0.112
same,AUC25,[5]; [13],0.115
same,AUC25,[5]; [14],0.0459
same,AUC25,[5]; [15],0.0294
same,AUC25,[5]; [17],0.0809
same,AUC25,[5]; [18],0.139
same,AUC25,[5]; [19],0.115
CC[C@@H](CO)NCCN[C@@H](CC)CO [ethambutol] + NNC(=O)c1ccncc1 [isoniazid] + O=[N+]([O-])c1cn2c(n1)OC[C@@H](OCc1ccc(OC(F)(F)F)cc1)C2 [pretomanid],GRinf,[1]; [6],-0.764
same,GRinf,[1]; [7],-0.36
same,GRinf,[1]; [8],-0.0462
same,GRinf,[1]; [9],-0.0497
same,GRinf,[1]; [10],-0.203
same,GRinf,[1]; [11],0.0963
same,GRinf,[1]; [12],-0.113
same,GRinf,[1]; [13],-0.623
same,GRinf,[1]; [14],0.106
same,GRinf,[1]; [15],-0.213
same,GRinf,[1]; [16],-0.562
same,GRinf,[1]; [17],0.0732
same,GRinf,[1]; [18],0.0667
same,GRinf,[1]; [19],0.0915
same,total FIC50,[2]; [6],0.401
same,total FIC50,[2]; [7],0.77
same,total FIC50,[2]; [8],0.443
same,total FIC50,[2]; [9],0.439
same,total FIC50,[2]; [10],0.668
same,total FIC50,[2]; [11],0.823
same,total FIC50,[2]; [12],1.17
same,total FIC50,[2]; [13],1.18
same,total FIC50,[2]; [14],0.0212
same,total FIC50,[2]; [15],0.237
same,total FIC50,[2]; [17],0.498
same,total FIC50,[2]; [18],0.146
same,total FIC50,[2]; [19],0.406
same,total FIC90,[3]; [7],0.544
same,total FIC90,[3]; [9],0.012
same,total FIC90,[3]; [13],1.18
same,total FIC90,[3]; [15],0.398
same,total FIC90,[3]; [16],-0.84
same,Einf,[4]; [6],0.841
same,Einf,[4]; [7],0.968
same,Einf,[4]; [8],0.941
same,Einf,[4]; [9],0.966
same,Einf,[4]; [10],0.715
same,Einf,[4]; [11],0.858
same,Einf,[4]; [12],0.881
same,Einf,[4]; [13],0.996
same,Einf,[4]; [14],0.915
same,Einf,[4]; [15],0.982
same,Einf,[4]; [16],0.996
same,Einf,[4]; [17],0.924
same,Einf,[4]; [18],0.867
same,Einf,[4]; [19],0.92
same,AUC25,[5]; [6],0.121
same,AUC25,[5]; [7],0.0806
same,AUC25,[5]; [8],0.0954
same,AUC25,[5]; [9],0.0496
same,AUC25,[5]; [10],0.11
same,AUC25,[5]; [11],0.0657
same,AUC25,[5]; [12],0.0675
same,AUC25,[5]; [13],0.0388
same,AUC25,[5]; [14],0.162
same,AUC25,[5]; [15],0.105
same,AUC25,[5]; [17],0.0742
same,AUC25,[5]; [18],0.109
same,AUC25,[5]; [19],0.0768
CC[C@@H](CO)NCCN[C@@H](CC)CO [ethambutol] + NNC(=O)c1ccncc1 [isoniazid] + CO[C@H]1/C=C/O[C@@]2(C)Oc3c(C)c(O)c4c(O)c(c(/C=N/N5CCN(C)CC5)c(O)c4c3C2=O)NC(=O)/C(C)=C\C=C\[C@H](C)[C@H](O)[C@@H](C)[C@@H](O)[C@@H](C)[C@H](OC(C)=O)[C@@H]1C [rifampicin],GRinf,[1]; [6],-0.0987
same,GRinf,[1]; [7],-0.0837
same,GRinf,[1]; [8],-0.0122
same,GRinf,[1]; [9],-0.0091
same,GRinf,[1]; [10],0.000894
same,GRinf,[1]; [11],0.194
same,GRinf,[1]; [12],-0.23
same,GRinf,[1]; [13],-0.778
same,GRinf,[1]; [14],0.364
same,GRinf,[1]; [15],-0.165
same,GRinf,[1]; [16],-0.321
same,GRinf,[1]; [17],0.116
same,GRinf,[1]; [18],0.000652
same,GRinf,[1]; [19],0.0672
same,total FIC50,[2]; [6],-0.427
same,total FIC50,[2]; [7],0.126
same,total FIC50,[2]; [8],0.2
same,total FIC50,[2]; [9],0.238
same,total FIC50,[2]; [10],-0.456
same,total FIC50,[2]; [11],0.41
same,total FIC50,[2]; [12],0.757
same,total FIC50,[2]; [13],0.99
same,total FIC50,[2]; [14],-0.262
same,total FIC50,[2]; [15],0.173
same,total FIC50,[2]; [17],0.199
same,total FIC50,[2]; [18],0.253
same,total FIC50,[2]; [19],0.302
same,total FIC90,[3]; [7],-0.549
same,total FIC90,[3]; [9],-0.403
same,total FIC90,[3]; [13],0.871
same,total FIC90,[3]; [15],-0.24
same,total FIC90,[3]; [16],-2.19
same,total FIC90,[3]; [19],-0.619
same,Einf,[4]; [6],0.899
same,Einf,[4]; [7],0.97
same,Einf,[4]; [8],0.936
same,Einf,[4]; [9],0.972
same,Einf,[4]; [10],0.617
same,Einf,[4]; [11],0.867
same,Einf,[4]; [12],0.915
same,Einf,[4]; [13],0.997
same,Einf,[4]; [14],0.872
same,Einf,[4]; [15],0.992
same,Einf,[4]; [16],0.967
same,Einf,[4]; [17],0.9
same,Einf,[4]; [18],0.853
same,Einf,[4]; [19],0.932
same,AUC25,[5]; [6],0.104
same,AUC25,[5]; [7],0.0385
same,AUC25,[5]; [8],0.0804
same,AUC25,[5]; [9],0.0612
same,AUC25,[5]; [10],0.0636
same,AUC25,[5]; [11],0.0895
same,AUC25,[5]; [12],0.0326
same,AUC25,[5]; [13],0.0525
same,AUC25,[5]; [14],0.0838
same,AUC25,[5]; [15],0.079
same,AUC25,[5]; [17],0.0526
same,AUC25,[5]; [18],0.0369
same,AUC25,[5]; [19],0.0264
